The text below walks through data of patent US20260158014A1, “METHODS OF ADMINISTERING VOXELOTOR” (Global Blood Therapeutics, Inc., priority 2021, published 2026).

The nature of data set [1]: Effect of food (high-fat, high-calorie meal). Type of data set: in vivo. To be noted: high-calorie meal vs fasted.
Data set [2] deals with CYP2B6 (Homo sapiens, UniProt P20813). Briefly: In vitro CYP enzyme study. Type of data set: in vitro ADME.
Data set [3] is described as follows: Probe-substrate DDI study: voxelotor exposure and safety in healthy subjects. In kind it is in vivo, human. On the procedure:
The effect of voxelotor on the pharmacokinetics (PK) of a single dose of caffeine, warfarin sodium, omeprazole, and midazolam hydrochloride, which are probe substrates for cytochrome P450 (CYP)1A2, CYP2C9, CYP2C19, and CYP3A4, respectively, were studied in healthy subjects. During Period 1, subjects received a single dose of caffeine 100 mg, warfarin sodium 10 mg+vitamin K 10 mg, omeprazole 20 mg, and midazolam hydrochloride 2 mg on Day 1. During Period 2, subjects received voxelotor 900 mg QD on Days 1 and 2 followed by 600 mg QD on Day 3, a single dose of caffeine 100 mg, warfarin sodium 10 mg+vitamin K 10 mg, omeprazole 20 mg, and midazolam hydrochloride 2 mg on Day 4, and voxelotor 600 mg QD on Days 4 through 7.
Whole blood and plasma concentrations of voxelotor and plasma concentrations of caffeine, paraxanthine, S-warfarin, omeprazole, 5-hydroxyomeprazole, midazolam, and 1-hydroxymidazolam were determined using validated assays.

Data set [4] deals with hemoglobin S (HbS) (Homo sapiens, UniProt P68871+P69905, E7V). Briefly: HbS binding and polymerization inhibition.
The subject of data set [5] is patients with SCD. Briefly: HOPE Phase 3 trial: efficacy. Type of data set: in vivo, human. On the procedure:
The efficacy and safety of OXBRYTA in SCD was evaluated in HOPE, a Phase 3 randomized, double-blind, placebo-controlled, multicenter trial [NCT 03036813]. In this study, 274 patients were randomized to daily oral administration of OXBRYTA 1,500 mg (N=90), OXBRYTA 900 mg (N=92), or placebo (N=92). Patients were included if they had from 1 to 10 vaso-occlusive crisis (VOC) events within 12 months prior to enrollment and baseline hemoglobin (Hb) ≥5.5 to ≤10.5 g/dL. Eligible patients on stable doses of hydroxyurea for at least 90 days were allowed to continue hydroxyurea therapy throughout the study. Randomization was stratified by patients already receiving hydroxyurea (yes, no), geographic region (North America, Europe, Other), and age (12 to <17 years, 18 to 65 years). The trial excluded patients who received red blood cell (RBC) transfusions within 60 days and erythropoietin within 28 days of enrollment, had renal insufficiency, uncontrolled liver disease, were pregnant, or lactating.
The majority of patients had HbSS or HbS/beta^0-thalassemia genotype (90%) and were receiving background hydroxyurea therapy (65%). The median age was 24 years (range: 12 to 64 years); 46 (17%) patients were 12 to <17 years. Median baseline Hb was 8.5 g/dL (5.9 to 10.8 g/dL). One hundred and fifteen (42%) had 1 VOC event and 159 (58%) had 2 to 10 events within 12 months prior to enrollment. In the OXBRYTA 1,500 mg group, 63 (70%) patients completed the study through Week 72.
Efficacy was based on Hb response rate defined as a Hb increase of >1 g/dL from baseline to Week 24 in patients treated with OXBRYTA 1,500 mg versus placebo. […] No outlier subgroups were observed. The distribution of Hb change from baseline for individual patients completing 24 weeks of treatment with OXBRYTA 1,500 mg or placebo is depicted in FIG. 2.
Additional efficacy evaluation included change in Hb and percent change in indirect bilirubin and percent reticulocyte count from baseline to Week 24 (Table 15).

Data set [6] relates to patients with SCD. In words: HOPE trial: safety. In kind it is in vivo, human. On the procedure:
The safety of OXBRYTA was evaluated in the HOPE trial based on data from 88 patients with SCD who received OXBRYTA 1,500 mg and 91 patients who received placebo orally once daily [see Clinical Studies (14.1)]. Seventy-four patients received OXBRYTA 1,500 mg once daily for ≥24 weeks, 65 patients for ≥48 weeks, and 63 patients completed the 72-week treatment period.
In patients who received OXBRYTA 1,500 mg once daily, the median age was 24 years (range:12 to 59 years); 65% female; 66% Black or African American and 23% Arab/Middle Eastern; and 65% receiving hydroxyurea at baseline.

Data set [7] relates to bacterial reverse mutation. In words: Reverse mutation bacterial (Ames) test. Type of data set: cell-based.

With `CC(C)n1nccc1-c1ncccc1COc1cccc(O)c1C=O` [voxelotor, 2-hydroxy-6-((2-(1-isopropyl-1H-pyrazol-5-yl)pyridin-3-yl)methoxy)benzaldehyde], in data set [1], the “increase in AUC with food, plasma” value is listed as 42%; the “increase in AUC with food, whole blood” value came out at 42%; the “increase in Cmax with food, plasma” value is 95%; the “increase in Cmax with food, whole blood” value is 45%. In addition, in data set [2], the CYP2B6 induction entry is given as “inducer”; the CYP2B6 inhibition result is “reversible and time-dependent inhibitor”. In data set [3], the “safety and tolerability alone and with probe substrates” value is “safe and well tolerated”. Moreover, the HbS polymerization result in data set [4] is given as “dose-dependent inhibition”. In addition, in data set [5] (1,500 mg QD, N=90), the “adjusted mean change from baseline to Week 24 in hemoglobin” value amounted to 1.1 g/dL, the “adjusted mean percent change from baseline to Week 24 in indirect bilirubin” value is on record as −29.1% and the “adjusted mean percent change from baseline to Week 24 in percent reticulocyte count” value was −18.0%. The “Hb response rate (Hb increase >1 g/dL from baseline to Week 24)” value in data set [5] (1,500 mg once daily, 46/90, adults and pediatric patients 12 years and older) is reported as 51%. Further, the “serious adverse reactions, patients” value in data set [6] (1,500 mg once daily, 3/88) was 3%. Moreover, the “permanent discontinuation due to an adverse reaction (Grades 1-4), patients” value in data set [6] (1,500 mg once daily, 4/88) amounted to 5%. Moreover, in data set [6] (1,500 mg, N=88), the “Adverse reaction: Abdominal Pain” value amounted to 23%, the “Adverse reaction: Diarrhea” value worked out at 23%, the “Adverse reaction: Headache” value is recorded as 32% and the “Adverse reaction: Nausea” value is listed as 19%. Further, in data set [6] (1,500 mg, N=88), the “Adverse reaction: Pyrexia” value was 15% and the “Adverse reaction: Rash” value stood at 15%. Further, the “dosage modifications (dose reduction or dosing interruption) due to an adverse reaction, patients” value in data set [6] (42/88) is given as 48%. Further, the “genotoxicity, Ames test” value in data set [7] is reported as “not genotoxic”.
